Assay results taken from the supplement of paper PMC10307832.

How the values were obtained:
Test in all cases: relative viability (nuclei count vs DMSO), 5 days (fraction); higher = more cells survive
Tozasertib + Bortezomib = compound: Cc1cc(Nc2cc(N3CCN(C)CC3)nc(Sc3ccc(NC(=O)C4CC4)cc3)n2)n[nH]1 [Tozasertib] + CC(C)C[C@H](NC(=O)[C@H](Cc1ccccc1)NC(=O)c1cnccn1)B(O)O [Bortezomib] (partner 0.002 µM)
Method in brief: (§1)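 Medians of duplicate plates are given as relative viability. That measure is the nuclei count in treated wells divided by the count in vehicle wells. Counts were taken on 4× images of lung cancer cell lines in 1536-well plates, 5 days after pin-tool dosing the day after seeding with one drug alone or a fixed anchor-drug dose plus five library-drug doses (not always all listed) in √10 steps.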

Tozasertib + Foretinib = compound: Cc1cc(Nc2cc(N3CCN(C)CC3)nc(Sc3ccc(NC(=O)C4CC4)cc3)n2)n[nH]1 [Tozasertib] + COc1cc2c(Oc3ccc(NC(=O)C4(C(=O)Nc5ccc(F)cc5)CC4)cc3F)ccnc2cc1OCCCN1CCOCC1 [Foretinib] (partner 0.25 µM)
Method in brief: as §1

Tozasertib + Lapatinib = compound: Cc1cc(Nc2cc(N3CCN(C)CC3)nc(Sc3ccc(NC(=O)C4CC4)cc3)n2)n[nH]1 [Tozasertib] + CS(=O)(=O)CCNCc1ccc(-c2ccc3ncnc(Nc4ccc(OCc5cccc(F)c5)c(Cl)c4)c3c2)o1 [Lapatinib] (partner 2 µM)
Method in brief: as §1

Tozasertib + Crizotinib = compound: Cc1cc(Nc2cc(N3CCN(C)CC3)nc(Sc3ccc(NC(=O)C4CC4)cc3)n2)n[nH]1 [Tozasertib] + C[C@@H](Oc1cc(-c2cnn(C3CCNCC3)c2)cnc1N)c1c(Cl)ccc(F)c1Cl [Crizotinib] (partner 1 µM)
Method in brief: as §1

Tozasertib + Pemetrexed = compound: Cc1cc(Nc2cc(N3CCN(C)CC3)nc(Sc3ccc(NC(=O)C4CC4)cc3)n2)n[nH]1 [Tozasertib] + Nc1nc2[nH]cc(CCc3ccc(C(=O)N[C@@H](CCC(=O)O)C(=O)O)cc3)c2c(=O)[nH]1 [Pemetrexed] (partner 0.2 µM)
Method in brief: as §1

Row | Cell Line | relative viability (Tozasertib + Bortezomib; first compound 0.004 µM) | relative viability (Tozasertib + Bortezomib; first compound 0.01265 µM) | relative viability (Tozasertib + Bortezomib; first compound 0.04 µM) | relative viability (Tozasertib + Bortezomib; first compound 0.1265 µM) | relative viability (Tozasertib + Foretinib; first compound 0.004 µM) | relative viability (Tozasertib + Foretinib; first compound 0.01265 µM) | relative viability (Tozasertib + Foretinib; first compound 0.04 µM) | relative viability (Tozasertib + Foretinib; first compound 0.1265 µM) | relative viability (Tozasertib + Lapatinib; first compound 0.004 µM) | relative viability (Tozasertib + Lapatinib; first compound 0.01265 µM) | relative viability (Tozasertib + Lapatinib; first compound 0.04 µM) | relative viability (Tozasertib + Lapatinib; first compound 0.1265 µM) | relative viability (Tozasertib + Crizotinib; first compound 0.004 µM) | relative viability (Tozasertib + Crizotinib; first compound 0.01265 µM) | relative viability (Tozasertib + Crizotinib; first compound 0.04 µM) | relative viability (Tozasertib + Crizotinib; first compound 0.1265 µM) | relative viability (Tozasertib + Pemetrexed; first compound 0.004 µM) | relative viability (Tozasertib + Pemetrexed; first compound 0.01265 µM) | relative viability (Tozasertib + Pemetrexed; first compound 0.04 µM) | relative viability (Tozasertib + Pemetrexed; first compound 0.1265 µM)
1 | NCI-H838 | 0.757 | 0.801 | 1.32 | 0.281 | 0.977 | 0.922 | 1.05 | 0.921 | 1.12 | 0.947 | 1.16 | 0.208 | 0.939 | 0.863 | 0.898 | 0.706 | 0.263 | 0.257 | 0.249 | 0.232
2 | NCI-H1355 | 1.19 | 1.15 | 1.27 | 0.606 | 0.942 | 0.926 | 0.901 | 0.853 | 0.934 | 1.02 | 0.987 | 0.791 | 1.09 | 1.09 | 1.09 | 0.775 | 1.12 | 0.974 | 1.03 | 0.948
3 | NCI-H1437 | 0.757 | 0.509 | 0.55 | 0.31 | 1.22 | 1.25 | 1.2 | 1.19 | 0.782 | 0.74 | 0.759 | 0.329 | 0.929 | 0.839 | 0.721 | 0.922 | 0.302 | 0.292 | 0.328 | 0.296
4 | NCI-H1563 | 0.873 | 0.817 | 0.956 | 0.861 | 0.892 | 0.919 | 0.918 | 0.92 | 0.922 | 0.967 | 0.875 | – | 0.843 | 0.843 | 0.934 | 0.84 | 0.816 | 0.845 | 0.823 | 0.615
5 | NCI-H1650 | 0.202 | 0.207 | 0.24 | 0.2 | 1.26 | 1.28 | 1.1 | 0.879 | 0.914 | 0.712 | 0.879 | 0.168 | – | 1.01 | 0.919 | – | 0.334 | 0.374 | 0.381 | 0.385
6 | NCI-H1651 | 1.05 | 0.851 | 0.979 | 0.885 | 0.694 | 0.773 | 0.856 | 0.87 | 0.973 | 0.806 | – | 0.392 | 0.892 | 0.81 | 0.906 | 0.867 | 0.593 | 0.615 | 0.582 | 0.433
7 | NCI-H1666 | 0.772 | 0.748 | – | 0.434 | 0.978 | 0.879 | 0.97 | 0.762 | 0.61 | 0.489 | 0.578 | 0.298 | 0.974 | 1.27 | 0.958 | 0.578 | 0.843 | 0.921 | 0.846 | 0.816
8 | NCI-H1734 | 0.833 | 0.998 | 1.07 | 0.464 | 0.888 | – | 0.824 | 0.414 | 1.06 | – | – | 0.497 | 0.703 | – | 0.67 | 0.258 | 0.424 | 0.351 | 0.453 | 0.436
9 | NCI-H1755 | 0.938 | 0.927 | 1.04 | 0.626 | 0.984 | 0.455 | 0.893 | 0.743 | – | 1.01 | – | 0.882 | 0.803 | 0.89 | 0.852 | 0.634 | 0.376 | 0.42 | 0.401 | 0.4
10 | NCI-H1915 | 1.07 | 0.924 | 0.953 | 0.727 | 1.16 | 1.02 | 1.06 | 0.862 | 1.05 | 0.968 | 0.897 | 0.688 | 0.98 | 0.889 | 0.873 | 0.721 | 0.46 | 0.477 | 0.474 | 0.412
11 | NCI-H1975 | 0.319 | 0.408 | – | 0.338 | 1 | 1.03 | 1.03 | 0.844 | 0.886 | 0.876 | 0.903 | 0.429 | 1.05 | 1.03 | 0.853 | 0.604 | 0.317 | 0.289 | 0.307 | 0.272
12 | NCI-H1993 | 1.06 | 1.05 | 1.33 | 0.805 | 0.944 | 0.732 | 0.848 | 0.726 | 0.804 | 0.82 | 0.829 | 0.772 | 0.931 | 0.776 | 0.845 | 0.581 | 0.587 | 0.605 | 0.634 | 0.476
13 | NCI-H2009 | 1.12 | 0.938 | 1.08 | 0.811 | 1.21 | 1.19 | 1.33 | 0.994 | 1.01 | 0.512 | 0.885 | 0.361 | 1.06 | 1.06 | 0.988 | 0.847 | 1 | 1.03 | 0.985 | 0.986
14 | NCI-H2023 | 1.2 | 0.905 | 1.16 | – | 0.747 | 0.968 | 0.94 | 0.652 | 0.796 | 1.01 | 0.947 | 0.123 | 0.717 | 0.704 | 0.611 | 0.403 | 0.239 | 0.241 | 0.246 | 0.213
